Source: patent US10526283B2, “Prodrugs of dithiol mucolytic agents” (PARION SCIENCES, INC., priority 2015, dated 2020)
Structures can show the parent of a compound that is named as a salt. One block for each molecule: values may come before it.

What was measured:
[1] = Pro-drug DTNB assay without enzyme (reducing activity); format: biochemical; settings: for reducing activity in DTNB assay without enzyme: no esterase added
From the text: (§1) This assay was designed to determine whether prodrug caps added on to our dithiol mucolytic compounds can be cleaved from the molecule. If so, the outcome would be an “active” compound that is able to reduce the S—S bond in DTNB. When cleaved the resulting compound, NTB (2-nitro-5-thiobenzoate), is a colored product that can be measured spectrophotometrically at an absorbance of 412 nm (Abs412). Using the molar extinction coefficient of NTB and measured maximum Abs412, the molar amount of DTNB that reacted with our mucolytic agents can be calculated. Dithiol mucolytic compounds react at a 2:1 stoichiometric ratio with DTNB (i.e. 2 molecules of NTB are produced for every one molecule of a dithiol compound that is oxidized). Dithiol prodrugs were mixed at a final concentration of 22.5 μM with excess DTNB (100 μM final) in 1 mL 50 mM Tris-HCl buffer (pH 7.5) and maximum Abs412 was measured. In the absence of a purified hydrolytic enzyme (e.g. porcine liver esterase; Sigma), the amount of DTNB cleavage observed is an indicator for stability of the cap on the prodrug compound (i.e. if the prodrug remains intact in solution the Abs412=0). Next, 5 uL of esterase (bought as an ammonium sulfate suspension that is subsequently centrifuged to isolate the esterase and then dissolved in reaction buffer prior to assaying) is combined with excess DTNB (100 μM final) and 22.5 μM pro-drug in 1 mL 50 mM Tris-HCl buffer (pH 7.5). Cleavage of the prodrug cap can be visualized in real time via DTNB cleavage at Abs412 by the esterase-liberated dithiol molecule.

esterase = assay: Pro-drug DTNB assay after incubation with esterase; format: biochemical, porcine; settings: for dependence of activation on amount of esterase: varying amounts of esterase
From the text: as §1

[2] = Stability of capped and uncapped compounds tested with DTNB; format: physicochemical; settings: 4 days at room temperature; tested before and after incubation with esterase
From the text: This assay was designed to determine whether prodrug caps added on to our dithiol mucolytic compounds can be cleaved from the molecule. If so, the outcome would be an “active” compound that is able to reduce the S—S bond in DTNB. When cleaved the resulting compound, NTB (2-nitro-5-thiobenzoate), is a colored product that can be measured spectrophotometrically at an absorbance of 412 nm (Abs412). Using the molar extinction coefficient of NTB and measured maximum Abs412, the molar amount of DTNB that reacted with our mucolytic agents can be calculated. Dithiol mucolytic compounds react at a 2:1 stoichiometric ratio with DTNB (i.e. 2 molecules of NTB are produced for every one molecule of a dithiol compound that is oxidized). Dithiol prodrugs were mixed at a final concentration of 22.5 μM with excess DTNB (100 μM final) in 1 mL 50 mM Tris-HCl buffer (pH 7.5) and maximum Abs412 was measured. In the absence of a purified hydrolytic enzyme (e.g. porcine liver esterase; Sigma), the amount of DTNB cleavage observed is an indicator for stability of the cap on the prodrug compound (i.e. if the prodrug remains intact in solution the Abs412=0). […]

Muc5AC = target: T1, Muc5AC (Homo sapiens, UniProt P98088); assay: Western blot analysis of HBE mucus, Muc5AC; format: cell-based; settings: single treatment, 10 mM
T1 construct: endogenous in cells; host or cells: primary human bronchial epithelial (HBE) cultures
From the text: (§2) This assay tests whether mucin has been reduced by mucolytic compounds. Various mucin-containing substrates (e.g. saliva, primary human bronchial epithelial (HBEs) cell mucus (either on cultures or harvested), and sputum) treated with our dithiol mucolytic compounds are quenched upon completion of the treatment period with a 10-fold excess of N-ethylmaleimide in order to alkylate any remaining active compound and to prevent further mucin reduction. A 10× concentrated sample loading buffer is diluted into each sample (lx TAE/5% glycerol/0.1% SDS/Bromophenol Blue). Samples (50 μg) were analyzed by electrophoresis on 0.9% agarose gels using a buffer system consisting of 1×TAE/0.1% SDS. The agarose gel was soaked for 15 min in 4×SSC (0.6 M NaCl, 60 mM Tri-sodium citrate dehydrate) containing 10 mM DTT before transferring the samples from the gel onto a nitrocellulose membrane by vacuum blotter. Unreduced and reduced Muc5B and Muc5AC were visualized on a LiCor Odyssey imaging detection system using a polyclonal antibody directed towards Muc5B.

Muc5B [3] = target: T2, Muc5B (Homo sapiens, UniProt Q9HC84); assay: Western blot analysis of HBE mucus, Muc5B; format: cell-based; settings: single treatment, 10 mM
T2 construct: 68, 70a/b and 76 all reduce MUC5B in human mucus samples; from tissue; host or cells: human mucus samples
From the text: as §2

human aminopeptidase = assay: DTNB assay after incubation with human aminopeptidase; format: biochemical; settings: over an hour incubation, two concentrations of human aminopeptidase
Muc5B [4] = target: T2, Muc5B; assay: MUC5B reduction in human mucus samples; format: biochemical
From the text: as §2

[5] = tested on: human bronchial epithelial cells (HBE); assay: HBE ADME assay; format: in vitro ADME; settings: four hours post-dose
Protocol: This assay was designed to determine if our dithiol prodrug compounds would be retained on the apical surface of human bronchial epithelial cells (HBE) (i.e. they are predominately cell impermeant) and if the compounds could be metabolized to their active forms (i.e. are there relevant hydrolytic enzymes present). Towards this goal, 15 μL of 10 mM dithiol prodrug compound was added to the apical surface of HBEs. At indicated time points, mucus from the apical surface was isolated with a PBS wash that contained 10-fold excess of N-ethylmaleimide in order to alkylate any remaining active compound and to prevent further mucin reduction. In addition the HBE cells and basolateral media were isolated at each time point. The form (e.g., prodrug, active metabolite, oxidized metabolite) and location (apical, cellular, basolateral media) of each compound was analyzed by LC-MS.

[6] = Elimination of inhaled 14C-labeled NAC from the lungs in animal studies; format: in vivo; settings: inhaled or intranasal, administered by inhalation, animal studies (unpublished observation)

reducing activity in DTNB assay without enzyme [1]: remained inactive
Molecule: CC(=O)SCc1cc(OCCNC(=O)[C@@H](N)CCCCN)c(OCCNC(=O)[C@@H](N)CCCCN)cc1CSC(C)=O [Compound 11, S,S′-((4,5-bis(2-((S)-2,6-diaminohexanamido)ethoxy)-1,2-phenylene)bis(methylene)) diethanethioate hydrochloride]
activation by esterase in DTNB assay (esterase; low and high concentration of esterase, approximately 15 min incubation): activated compound 11 to a similar level as compound 41

amount of esterase giving full activation (esterase; DTNB assay): ≥ 0.015 units
activation by esterase in DTNB assay (esterase; high concentration of esterase): fully activated immediately
activation by esterase in DTNB assay (esterase; low concentration of esterase, 15 min incubation): near fully activated
Molecule: CC(=O)SCc1ccccc1CSC(C)=O [Compound 13, S,S′-(1,2-phenylenebis(methylene)) diethanethioate]
dependence of activation on amount of esterase (esterase): Increasing amounts of esterase correlated with increasing activation

stability against oxidation tested with DTNB [2]: prevents some but not all oxidation
reduction of Muc5AC on the apical surface of HBE cultures (Muc5AC): reduced
reduction of Muc5B on the apical surface of HBE cultures (Muc5B [3]): reduced
Molecule: CC(=O)SCc1ccc(OCCN(C[C@H](O)[C@@H](O)[C@H](O)[C@H](O)CO)C[C@H](O)[C@@H](O)[C@H](O)[C@H](O)CO)cc1CSC(C)=O [Compound 23, S,S′-((4-(2-(bis((2S,3R,4R,5R)-2,3,4,5,6-pentahydroxyhexyl)amino)ethoxy)-1,2-phenylene)bis(methylene)) diethanethioate]
dependence of activation on amount of esterase (esterase): Increasing amounts of esterase increased activation

half-life [6]: ~20 min
Molecule: CC(=O)N[C@@H](CS)C(=O)O [NAC, N-acetyl cysteine]

The remaining lines, values behind:

Molecule: NCCCC[C@H](N)C(=O)SCc1ccccc1CSC(=O)[C@@H](N)CCCCN [Compound 35, (2S,2′S)—S,S′-(1,2-phenylenebis(methylene)) bis(2,6-diaminohexanethioate)HCl salt]
activation by aminopeptidase in DTNB assay (human aminopeptidase): does not completely activate the compound

Molecule: CC(=O)SCc1ccc(OCCN(C[C@@H](O)[C@@H](O)[C@H](O)[C@H](O)CO)C[C@@H](O)[C@@H](O)[C@H](O)[C@H](O)CO)cc1CSC(C)=O [Compound 68, S,S′-((4-(2-(bis((2R,3R,4R,5R)-2,3,4,5,6-pentahydroxyhexyl)amino)ethoxy)-1,2-phenylene)bis(methylene)) diethanethioate hydrochloride]
reducing activity in DTNB assay without enzyme [1]: does not reduce the disulfide bonds
dependence of activation on amount of esterase (esterase): concentration dependent increase in reaction rates
reduction of MUC5B in human mucus samples (Muc5B [4]): reduce MUC5B
metabolism and oxidation on the apical surface of HBE cultures [5]: substantially metabolized and oxidized
retention on the apical cell surface of HBE cultures [5]: substantially maintained on the apical cell surface

Molecule: Cl.OC[C@@H](O)[C@@H](O)[C@H](O)[C@H](O)CN(CCOc1ccc(CS)c(CS)c1)C[C@@H](O)[C@@H](O)[C@H](O)[C@H](O)CO [Compound 76, (2R,2′R,3R,3′R,4R,4′R,5R,5′R)-6,6′-((2-(3,4-bis(mercaptomethyl)phenoxy)ethyl)azanediyl)bis(hexane-1,2,3,4,5-pentaol) hydrochloride]
time to fully reduce all available disulfides ([1]; no enzyme): < 10 s
reduction of MUC5B in human mucus samples (Muc5B [4]): reduce MUC5B

Molecule: S-4-(2-(bis((2R,3R,4R,5R)-2,3,4,5,6-pentahydroxyhexyl)amino)ethoxy)-2-(mercaptomethyl)benzyl ethanethioate hydrochloride and S-5-(2-(bis((2R,3R,4R,5R)-2,3,4,5,6-pentahydroxyhexyl)amino)ethoxy)-2-(mercaptomethyl)benzyl ethanethioate hydrochloride [70a/b]
reduction of MUC5B in human mucus samples (Muc5B [4]): reduce MUC5B
